Assay: gradient 5% acetonitrile 3 min, to 50% in 2 min, to 85% in 15 min, held 3 min, 100 µL/min
Settings: column: Zorbax Extend-C18 2.1 x 50 mm; eluents: water / acetonitrile, 0.1% formic acid
Method in brief: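 Pure standards were run in mixtures of ~100 molecules by HPLC coupled to a quadrupole time-of-flight mass spectrometer. The column was a Zorbax Extend-C18 (2.1 × 50 mm, 1.8 μm) at 100 μL/min, with water and acetonitrile each containing 0.1% formic acid, in positive and negative ionization mode. Dead and dwell volumes were 40 μL and 900 μL. Retention time was taken from computationally picked adduct peaks, each manually inspected, with data collected over 3 months.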

Row | Structure (SMILES) | RP-LC retention time [s]
1 | CC(C)N1CCn2c(nc3cc(C(=O)NC4CCCCCC4)ccc32)C1=O | 750
2 | CCc1nc2ccccc2c(=O)n1Cc1noc(-c2cccc(OC)c2)n1 | 998
3 | Cc1cccc(Cn2c(C)c(CNCc3ccco3)c(C(=O)O)c2C)c1 | 697
4 | CCCC(=O)Nc1ccc2c(c1)CN(C(=O)c1c(F)cccc1Cl)C(C(=O)N(C)C)C2 (stereo not given) | 727
5 | Cc1nn(-c2ccc(-c3ccccc3)nn2)c(C)c1S(=O)(=O)N1CCN(c2ccccn2)CC1 | 776
6 | Cc1cc(C(=O)Nc2nnc(-c3csc(C)n3)o2)c(C)o1 | 599
7 | Cc1ccc(Cl)cc1N1CCN(C(=O)CCN2C(=O)C3C4C=CC(C4)C3C2=O)CC1 (stereo not given) | 989
8 | COc1ccc2c(c1)c1ncn(Cc3nc(C4CC4)no3)c(=O)c1n2Cc1c(F)cccc1Cl | 1070
9 | COCCc1noc(C2CN(S(=O)(=O)Cc3ccccc3F)C2)n1 | 858
10 | Cc1nc2c(sc3nc(-c4ccccc4)ccc32)c(=O)n1CC(=O)Nc1cccc(Cl)c1 | 1120
11 | CC1CN=C2C=C(N3CCN(C(=O)Nc4ccccc4C(F)(F)F)CC3)N=CN21 (stereo not given) | 615
12 | COCCN1C(=O)CN(Cc2ccc(C)cc2)C(=O)C1c1cccs1 (stereo not given) | 849
13 | CC(C)CCN1CCC(N2CCN(S(=O)(=O)Cc3ccc(F)cc3Cl)CC2)C1=O (stereo not given) | 682
14 | CCC1CCCCN1C(=O)c1cnc2nc(C)ccc2c1Nc1ccc(C)cc1 (stereo not given) | 674
15 | COC(=O)c1ccccc1NC(=O)Cn1cccc(-c2nc(-c3ccc(OC)c(OC)c3)no2)c1=O | 871
16 | Cc1[nH]c(C(=O)N2CCC(CC(=O)NC(C)c3ccccc3)CC2)c(C)c1C(=O)OC(C)C (stereo not given) | 832
17 | CC(C)C(=O)N1CCCC(c2nc(CNC(=O)C3CCC3)cs2)C1 (stereo not given) | 679
18 | O=C(Nc1cccnc1)C1CCN(S(=O)(=O)c2cc(-c3noc(C4CCC4)n3)cs2)CC1 | 762
19 | CSc1ncn(-c2nc(NC(C)C)nc(N(C)C)n2)n1 | 874
20 | COc1cccc(-c2ccc(=O)n(CCc3nc(-c4cccc(OC)c4OC)no3)n2)c1 | 921
21 | Cc1ccc(CNS(=O)(=O)c2cc3n(c2)CCCNC3=O)cc1 | 658
22 | CC(C)(C)c1csc(-c2csc(S(=O)(=O)NCc3ccc4c(c3)OCO4)c2)n1 | 1170
23 | CCOC(=O)c1ccc(NC(=O)C2CCCN(S(=O)(=O)c3cc(OC)ccc3OC)C2)cc1 (stereo not given) | 975
24 | CC(NS(=O)(=O)CCCOc1ccc2c(c1)OCO2)c1ccccc1 (stereo not given) | 750
25 | O=C(NCc1cccnc1)C1c2ccccc2C(=O)N1C1CCCCCC1 (stereo not given) | 624
26 | Cc1cc2nc(C)c(CCC(=O)O)c(C)n2n1 | 597

The remaining lines, values ahead:

Row | RP-LC retention time [s] | Structure (SMILES)
27 | 1160 | C=CCn1c(=O)c2ccccc2n(Cc2nc(-c3ccc(CC)cc3)no2)c1=O
28 | 968 | CCc1nc2cc(-c3noc(-c4ccco4)n3)ccc2o1
29 | 586 | O=C(CCCSc1ccc(NC(=O)c2ccc(F)cc2)nn1)Nc1cccnc1
30 | 908 | CCOC(=O)c1cnc(N2CCN(c3ccccc3F)CC2)[nH]c1=O
31 | 696 | Cc1ccc(-c2cc(N3CCN(C(=O)c4ccccc4Br)CC3)ncn2)cc1
32 | 690 | C[C@@H](Oc1cc(-n2cnc3ccc(CN4CCN(C)CC4)cc32)sc1C(N)=O)c1ccccc1C(F)(F)F
33 | 753 | O=C(NC1CCN(Cc2ccccc2)CC1)C1CCCN(c2ncc(-c3cccc(F)c3)cn2)C1 (stereo not given)
34 | 1140 | Cc1ccc(Sc2nccnc2N2CCCC(C(=O)NCCC(C)C)C2)cc1 (stereo not given)
35 | 657 | COc1cc(C(=O)Nc2c(-c3ccc(F)cc3)nc3ccccn23)cc(OC)c1OC
36 | 1100 | COc1ccc(-c2nc(Cc3noc(-c4ccccc4)n3)c(C)o2)cc1
37 | 624 | O=C(Nc1ccccc1F)N1CCN(CCn2c(C(F)(F)F)nc3cccnc32)CC1
38 | 892 | Cn1c(=O)n(C)c2cc(CNc3ccc(Cl)cc3)ccc21
39 | 629 | CCn1cc(C)c(C(=O)O)c1CC(=O)NCCN1CCc2ccccc2C1
40 | 615 | Cc1nn(CC(=O)NCc2ccncc2)c(=O)c2nc(-c3ccccc3)sc12
41 | 792 | CC(CNC(=O)C1CCN(S(=O)(=O)c2ccc3c(c2)NC(=O)CO3)CC1)c1ccccc1 (stereo not given)
42 | 730 | CCOC(=O)c1nc2cc(C)c(C)cc2nc1N1CCN(c2ccccn2)CC1
43 | 757 | O=C(Cn1nc(-c2ccccc2)c2cc(Cl)ccc21)N1CCN(c2ccccn2)CC1
44 | 878 | CCCS(=O)(=O)c1nc2ccc(NS(=O)(=O)c3cccc4nsnc34)cc2s1
45 | 1010 | Cn1nc(-c2nnc(-c3ccc(F)cc3)o2)c2c1CCN(S(=O)(=O)c1ccc(Cl)s1)C2
46 | 819 | CC(C)c1noc(CC2CCN(C(=O)c3ccsc3)CC2)n1
47 | 737 | COc1cccc(N2CCN(C(=O)C3CCCN(c4cnc5nccnc5c4)C3)CC2)c1 (stereo not given)
48 | 900 | O=[N+]([O-])c1ccc(Sc2ncccn2)c([N+](=O)[O-])c1
49 | 577 | COc1ccc(CNC(=O)NCC(c2ccccc2Cl)N(C)C)cc1 (stereo not given)
50 | 909 | Cc1c(C)n(C)c2ccc(C(=O)NCC(C)C)cc12
51 | 738 | CC(C)C(=O)Nc1ccc(-n2cnc(C(=O)NCc3ccccc3)c2)nc1
52 | 838 | Cc1nnc2ccc(-c3noc(Cc4ccccc4Br)n3)cn12
53 | 1290 | O=C(Nc1ccc(Cl)cc1)C1CCCN(c2nc3ccccc3nc2C(F)(F)F)C1 (stereo not given)
54 | 588 | CS(=O)(=O)N1CCC(C(=O)Nc2ccc3cn[nH]c3c2)CC1
55 | 579 | O=[N+]([O-])c1c(NCCO)cc(N2CCN(c3ccccn3)CC2)c2nonc12

Source: the METLIN SMRT retention time set (Domingo-Almenara et al. 2019)
